This experiment has as its target T1, Nav1.7 (or SCN9A) channel (Homo sapiens, UniProt Q15858).
T1 construct: expressed in transfected cells
As to the kind of experiment: Nav1.7 (hSCN9A) block in HEK cells, PatchXpress 7000 automated electrophysiology, estimated IC50 (EIC50). It counts as cell-based. The note with it: PatchXpress assay; HEK cells stably transfected with hSCN9A, voltage-clamped at V1/2 of inactivation. Here is the method: The ability of the compounds of formula (I) to block the Nav1.7 (or SCN9A) channel were measured using the assay described below.
Human Embryonic Kidney (HEK) cells were transfected with an hSCN9A construct using lipofectamine reagent (Invitrogen), using standard techniques. Cells stably expressing the hSCN9A constructs were identified by their resistance to G-418 (400 μg/ml). Clones were screened for expression using the whole-cell voltage-clamp technique.
HEK cells stably transfected with hSCN9A were maintained in DMEM medium supplemented with 10% heat-inactivated fetal bovine serum and 400 μg/ml G-418 in an incubator at 37° C. with a humidified atmosphere of 10% CO2. For HTS, cells were harvested from flasks by trypsinization and replated in an appropriate multi-well plate (typically 96 or 384 wells/plate) such that confluence would be achieved within 24 hours of plating. For electrophysiological studies, cells were removed from the culture flask by brief trypsinization and re-plated at low density onto glass cover slips. Cells were typically used for electrophysiological experiments within 24 to 72 hours after plating.
HEK cells stably transfected with hSCN9A were viewed under Hoffman contrast optics and placed in front of an array of flow pipes emitting either control or compound-containing extracellular solutions. All compounds were dissolved in dimethyl sulfoxide to make 10 mM stock solutions, which were then diluted into extracellular solution to attain the final concentrations desired. […] The voltage-dependence of inactivation was determined by applying a series of depolarizing prepulses (8 sec long in 10 mV increments) from a negative holding potential. The voltage was then immediately stepped to 0 mV to assess the magnitude of the sodium current. Currents elicited at 0 mV were plotted as a function of prepulse potential to allow estimation of the voltage at which 50% of the channels were inactivated (midpoint of inactivation or V1/2). Compounds were tested for their ability to inhibit hSCN9A sodium channels by activating the channel with a 20 msec voltage step to 0 mV following an 8 second conditioning prepulse to the empirically determined V1/2. Compound effect (% inhibition) was determined by difference in current amplitude before and after application of test compounds. For ease of comparison, “estimated IC-50” (EIC50) values were calculated from single point electrophysiology data by the following equation, (tested concentration, uM) X (100-% inhibition/% inhibition). Inhibition values <20% and >80% were excluded from the calculation.
Electrophysiological assays were conducted with PatchXpress 7000 hardware and associated software (Molecular Devices Corp). All assay buffers and solutions were identical to those used in conventional whole-cell voltage clamp experiments described above. hSCN9A cells were grown as above to 50%-80% confluency and harvested by trypsinization. Trypsinized cells were washed and resuspended in extracellular buffer at a concentration of 1×10^6 cells/ml. The onboard liquid handling facility of the PatchXpress was used for dispensing cells and application of test compounds. Determination of the voltage midpoint of inactivation was as described for conventional whole-cell recordings. Cells were then voltage-clamped to the empirically determined V1/2 and current was activated by a 20 msec voltage step to 0 mV.
Compounds of the Examples were tested in the assays described above and found to have the Nav1.7 EIC50 (μM) values specified in the table below. All data are derived from the PatchXpress assay unless explicitly stated otherwise.

By IC50 is commonly meant the concentration needed to halve the response being measured.

T1 sequence (Q15858 whole entry): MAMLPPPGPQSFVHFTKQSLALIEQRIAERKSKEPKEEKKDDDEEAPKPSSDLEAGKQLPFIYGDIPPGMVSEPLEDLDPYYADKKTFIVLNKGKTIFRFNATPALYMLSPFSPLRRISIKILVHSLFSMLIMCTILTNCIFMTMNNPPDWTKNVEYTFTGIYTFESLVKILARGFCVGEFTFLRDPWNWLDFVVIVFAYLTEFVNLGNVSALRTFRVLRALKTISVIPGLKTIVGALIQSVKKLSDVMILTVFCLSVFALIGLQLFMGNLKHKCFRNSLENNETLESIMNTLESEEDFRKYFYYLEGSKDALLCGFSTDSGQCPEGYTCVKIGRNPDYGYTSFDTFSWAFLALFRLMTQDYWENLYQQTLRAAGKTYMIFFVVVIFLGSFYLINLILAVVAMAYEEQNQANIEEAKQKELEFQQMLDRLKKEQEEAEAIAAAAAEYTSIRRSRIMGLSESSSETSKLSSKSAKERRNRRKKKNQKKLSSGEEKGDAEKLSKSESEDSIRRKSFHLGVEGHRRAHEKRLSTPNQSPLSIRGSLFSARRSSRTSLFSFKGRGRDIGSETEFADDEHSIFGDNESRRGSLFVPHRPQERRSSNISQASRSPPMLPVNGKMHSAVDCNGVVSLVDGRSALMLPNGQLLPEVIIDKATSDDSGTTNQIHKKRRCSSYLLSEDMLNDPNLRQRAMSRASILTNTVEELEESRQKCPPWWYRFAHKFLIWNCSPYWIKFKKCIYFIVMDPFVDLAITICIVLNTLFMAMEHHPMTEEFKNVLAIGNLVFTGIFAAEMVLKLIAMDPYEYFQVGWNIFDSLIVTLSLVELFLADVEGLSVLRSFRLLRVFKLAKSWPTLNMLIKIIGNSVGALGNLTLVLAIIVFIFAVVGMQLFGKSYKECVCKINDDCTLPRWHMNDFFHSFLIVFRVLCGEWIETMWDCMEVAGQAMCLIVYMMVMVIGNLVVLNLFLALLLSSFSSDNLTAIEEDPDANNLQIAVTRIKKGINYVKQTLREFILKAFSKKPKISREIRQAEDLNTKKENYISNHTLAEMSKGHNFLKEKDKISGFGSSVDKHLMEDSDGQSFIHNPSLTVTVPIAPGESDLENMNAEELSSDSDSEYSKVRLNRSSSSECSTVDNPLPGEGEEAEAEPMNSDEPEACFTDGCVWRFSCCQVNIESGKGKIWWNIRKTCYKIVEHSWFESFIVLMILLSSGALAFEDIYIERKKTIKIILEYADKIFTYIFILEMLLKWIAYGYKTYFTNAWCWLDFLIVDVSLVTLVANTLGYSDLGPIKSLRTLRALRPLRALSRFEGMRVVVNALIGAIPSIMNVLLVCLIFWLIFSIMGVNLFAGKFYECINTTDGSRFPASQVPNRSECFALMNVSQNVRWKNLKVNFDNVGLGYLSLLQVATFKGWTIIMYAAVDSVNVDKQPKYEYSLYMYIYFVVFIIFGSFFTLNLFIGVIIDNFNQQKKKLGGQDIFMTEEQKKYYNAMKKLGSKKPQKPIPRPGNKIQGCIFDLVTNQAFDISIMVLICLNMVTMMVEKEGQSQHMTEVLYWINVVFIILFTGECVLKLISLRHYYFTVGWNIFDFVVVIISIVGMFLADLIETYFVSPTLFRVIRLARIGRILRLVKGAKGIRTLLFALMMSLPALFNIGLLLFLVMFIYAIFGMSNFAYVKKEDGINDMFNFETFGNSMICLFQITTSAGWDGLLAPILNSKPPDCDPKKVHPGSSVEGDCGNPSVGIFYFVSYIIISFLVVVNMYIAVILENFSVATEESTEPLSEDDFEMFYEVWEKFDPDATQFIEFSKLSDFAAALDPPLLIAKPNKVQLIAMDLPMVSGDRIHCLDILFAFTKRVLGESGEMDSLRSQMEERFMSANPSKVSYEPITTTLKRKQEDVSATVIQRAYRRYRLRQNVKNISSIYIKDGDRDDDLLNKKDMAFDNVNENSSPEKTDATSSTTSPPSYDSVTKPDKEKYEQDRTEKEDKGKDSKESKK

On to `CN1CCC(Oc2ncc(Oc3cc(F)c(C(=O)NS(C)(=O)=O)cc3Cl)cc2Cl)CC1` [Example 30, 5-chloro-4-({5-chloro-6-[(1-methylpiperidin-4-yl)oxy]pyridin-3-yl}oxy)-2-fluoro-N-(methylsulfonyl)benzamide], for which the 50% inhibitory concentration (IC50) is 7600 nM.

For the compound `CC(C)Oc1ncc(Oc2c(F)cc(C(=O)NS(C)(=O)=O)cc2F)cc1Cl` [Example 32, 4-[(5-chloro-6-isopropoxypyridin-3-yl)oxy]-3,5-difluoro-N-(methylsulfonyl)benzamide], the IC50 is 340 nM.

Consider `CC(C)Oc1ncc(Oc2ccc(C(=O)NS(C)(=O)=O)cc2F)cc1Cl` [Example 33, 4-[(5-chloro-6-isopropoxypyridin-3-yl)oxy]-3-fluoro-N-(methylsulfonyl)benzamide], for which the concentration for half-maximal inhibition (IC50) is 700 nM.

Regarding `CC(C)(C)Oc1ncc(Oc2cc(F)c(C(=O)NS(C)(=O)=O)cc2F)cc1Cl` [Example 34, 4-[(6-tert-butoxy-5-chloropyridin-3-yl)oxy]-2,5-difluoro-N-(methylsulfonyl)benzamide], the IC50 was 33 nM.

`CS(=O)(=O)NC(=O)c1cc(F)c(Oc2cnc(OCC3CC3)c(Cl)c2)cc1F` [Example 35, 4-{[5-chloro-6-(cyclopropylmethoxy)pyridin-3-yl]oxy}-2,5-difluoro-N-(methylsulfonyl)benzamide]: the concentration for half-maximal inhibition (IC50) was 41 nM.

Regarding `CC(C)Oc1ncc(Oc2ccc(C(=O)NS(C)(=O)=O)c(F)c2)cc1Cl` [Example 36, 4-[(5-chloro-6-isopropoxypyridin-3-yl)oxy]-2-fluoro-N-(methylsulfonyl)benzamide], the IC50 is 310 nM.

As to `CS(=O)(=O)NC(=O)c1cc(Cl)c(Oc2cnc(OC3CCOCC3)c(Cl)c2)cc1F` [Example 37, 5-chloro-4-{[5-chloro-6-(tetrahydro-2H-pyran-4-yloxy)pyridin-3-yl]oxy}-2-fluoro-N-(methylsulfonyl)benzamide], the concentration for half-maximal inhibition (IC50) was 140 nM.

As to `CC(C)COc1ncc(Oc2cc(F)c(C(=O)NS(C)(=O)=O)cc2Cl)cc1Cl` [Example 38, 5-chloro-4-[(5-chloro-6-isobutoxypyridin-3-yl)oxy]-2-fluoro-N-(methylsulfonyl)benzamide], the half-maximal inhibitory concentration (IC50) was 7.5 nM.

In the case of `CC(C)Oc1ncc(Oc2cc(F)c(C(=O)NS(C)(=O)=O)cc2Cl)cc1Cl` [Example 39, 5-chloro-4-[(5-chloro-6-isopropoxypyridin-3-yl)oxy]-2-fluoro-N-(methylsulfonyl)benzamide], the 50% inhibitory concentration (IC50) was 25 nM.

With `[2H]C([2H])([2H])C([2H])(Oc1ncc(Oc2cc(F)c(C(=O)NS(C)(=O)=O)cc2F)cc1Cl)C([2H])([2H])[2H]` [Example 40, -({5-chloro-6-[d7-propan-2-yloxy]pyridin-3-yl}oxy)-2,5-difluoro-N-(methylsulfonyl)benzamide], the IC50 is 130 nM.

Consider `[2H]C(C)(C)Oc1ncc(Oc2cc(F)c(C(=O)NS(C)(=O)=O)cc2F)cc1Cl` [Example 41, 4-({5-chloro-6-[2-d1-propan-2-yloxy]pyridin-3-yl}oxy)-2,5-difluoro-N-(methylsulfonyl)benzamide], for which the IC50 was 190 nM.

As for `CC(Oc1ncc(Oc2cc(F)c(C(=O)NS(C)(=O)=O)cc2Cl)cc1Cl)C(F)(F)F` (stereo not shown) [Example 43, 5-chloro-4-{[5-chloro-6-(2,2,2-trifluoro-1-methylethoxy)pyridin-3-yl]oxy}-2-fluoro-N-(methylsulfonyl)benzamide], the concentration for half-maximal inhibition (IC50) was 11 nM.

Consider `CC(F)(F)c1ncc(Oc2cc(F)c(C(=O)NS(C)(=O)=O)cc2Cl)cc1Cl` [Example 44, 5-chloro-4-{[5-chloro-6-(1,1-difluoroethyl)pyridin-3-yl]oxy}-2-fluoro-N-(methylsulfonyl)benzamide], for which the half-maximal inhibitory concentration (IC50) was 560 nM.

Turning to `CS(=O)(=O)NC(=O)c1cc(F)c(Oc2cnc(OCC(F)(F)C(F)F)c(Cl)c2)cc1F` [Example 45, 4-{[5-chloro-6-(2,2,3,3-tetrafluoropropoxy)pyridin-3-yl]oxy}-2,5-difluoro-N-(methylsulfonyl)benzamide], the IC50 is 110 nM.

In the case of `CC(C)Oc1ccc(Oc2cc(F)c(C(=O)NS(C)(=O)=O)cc2F)cn1` [Example 47, 2,5-difluoro-4-[(6-isopropoxypyridin-3-yl)oxy]-N-(methylsulfonyl)benzamide], the IC50 was 680 nM.

`CC(C)(O)c1ncc(Oc2cc(F)c(C(=O)NS(C)(=O)=O)cc2Cl)cc1Cl` [Example 48, 5-chloro-4-{[5-chloro-6-(1-hydroxy-1-methylethyl)pyridin-3-yl]oxy}-2-fluoro-N-(methylsulfonyl)benzamide]: the IC50 was 3500 nM.

Take `CC(C)Cc1ncc(Oc2cc(F)c(C(=O)NS(C)(=O)=O)cc2F)cc1Cl` [Example 49, 4-[(5-chloro-6-isobutylpyridin-3-yl)oxy]-2,5-difluoro-N-(methylsulfonyl)benzamide]: the IC50 is 760 nM.

`CS(=O)(=O)NC(=O)c1cc(F)c(Oc2cnc(C3CC3)c(Cl)c2)cc1F` [Example 50, 4-[(5-chloro-6-cyclopropylpyridin-3-yl)oxy]-2,5-difluoro-N-(methylsulfonyl)benzamide]: the IC50 is 160 nM.

As for `CC(C)(C)c1ncc(Oc2cc(F)c(C(=O)NS(C)(=O)=O)cc2F)cc1Cl` [Example 51, 4-[(6-tert-butyl-5-chloropyridin-3-yl)oxy]-2,5-difluoro-N-(methylsulfonyl)benzamide], the half-maximal inhibitory concentration (IC50) is 270 nM.

As to `CS(=O)(=O)NC(=O)c1cc(Cl)c(Oc2cnc(OCC(F)F)c(Cl)c2)cc1F` [Example 52, 5-chloro-4-{[5-chloro-6-(2,2-difluoroethoxy)pyridin-3-yl]oxy}-2-fluoro-N-(methylsulfonyl)benzamide], the 50% inhibitory concentration (IC50) is 160 nM.

As to `CS(=O)(=O)NC(=O)c1cc(Cl)c(Oc2cnc(OC(CF)CF)c(Cl)c2)cc1F` [Example 53, 5-chloro-4-({5-chloro-6-[2-fluoro-1-(fluoromethyl)ethoxy]pyridin-3-yl}oxy)-2-fluoro-N-(methylsulfonyl)benzamide], the 50% inhibitory concentration (IC50) is 260 nM.

As to `CS(=O)(=O)NC(=O)c1cc(Cl)c(Oc2cnc(OC(F)F)c(Cl)c2)cc1F` [Example 54, 5-chloro-4-{[5-chloro-6-(difluoromethoxy)pyridin-3-yl]oxy}-2-fluoro-N-(methylsulfonyl)benzamide], the IC50 was 180 nM.

For `CS(=O)(=O)NC(=O)c1cc(Cl)c(Oc2cnc(OC3CC3)c(Cl)c2)cc1F` [Example 55, 5-chloro-4-{[5-chloro-6-(cyclopropyloxy)pyridin-3-yl]oxy}-2-fluoro-N-(methylsulfonyl)benzamide], the IC50 was 48 nM.

As for `CS(=O)(=O)NC(=O)c1cc(Cl)c(Oc2cnc(OCC(F)(F)C(F)(F)F)c(Cl)c2)cc1F` [Example 56, 5-chloro-4-{[5-chloro-6-(2,2,3,3,3-pentafluoropropoxy)pyridin-3-yl]oxy}-2-fluoro-N-(methylsulfonyl)benzamide], the IC50 is 13 nM.

Turning to `CC(C)(F)COc1ncc(Oc2cc(F)c(C(=O)NS(C)(=O)=O)cc2Cl)cc1Cl` [Example 57, 5-chloro-4-{[5-chloro-6-(2-fluoro-2-methylpropoxy)pyridin-3-yl]oxy}-2-fluoro-N-(methylsulfonyl)benzamide], the IC50 is 94 nM.

Consider `CS(=O)(=O)NC(=O)c1cc(Cl)c(Oc2cnc(OCC(F)(F)F)c(Cl)c2)cc1F` [Example 58, 5-chloro-4-{[5-chloro-6-(2,2,2-trifluoroethoxy)pyridin-3-yl]oxy}-2-fluoro-N-(methylsulfonyl)benzamide], for which the concentration for half-maximal inhibition (IC50) was 23 nM.

With `CC(C)C(F)(F)c1ncc(Oc2cc(F)c(C(=O)NS(C)(=O)=O)cc2Cl)cc1Cl` [Example 60, 5-chloro-4-{[5-chloro-6-(1,1-difluoro-2-methylpropyl)pyridin-3-yl]oxy}-2-fluoro-N-(methylsulfonyl)benzamide], the IC50 is 140 nM.

For the compound `CC(C)Oc1ncc(Oc2cc(F)c(C(=O)NS(C)(=O)=O)cc2Cl)cn1` [Example 61, 5-chloro-2-fluoro-4-[(2-isopropoxypyrimidin-5-yl)oxy]-N-(methylsulfonyl)benzamide], the IC50 was 5500 nM.
